The text below walks through data of patent US20020090373A1, “ADAMTS polypeptides, nucleic acids encoding them, and uses thereof” (priority 2000, published 2002).

Data set [1] deals with T1, recombinant human ADAMTS-4 (Homo sapiens, UniProt O75173).
T1 sequence (O75173 213-837): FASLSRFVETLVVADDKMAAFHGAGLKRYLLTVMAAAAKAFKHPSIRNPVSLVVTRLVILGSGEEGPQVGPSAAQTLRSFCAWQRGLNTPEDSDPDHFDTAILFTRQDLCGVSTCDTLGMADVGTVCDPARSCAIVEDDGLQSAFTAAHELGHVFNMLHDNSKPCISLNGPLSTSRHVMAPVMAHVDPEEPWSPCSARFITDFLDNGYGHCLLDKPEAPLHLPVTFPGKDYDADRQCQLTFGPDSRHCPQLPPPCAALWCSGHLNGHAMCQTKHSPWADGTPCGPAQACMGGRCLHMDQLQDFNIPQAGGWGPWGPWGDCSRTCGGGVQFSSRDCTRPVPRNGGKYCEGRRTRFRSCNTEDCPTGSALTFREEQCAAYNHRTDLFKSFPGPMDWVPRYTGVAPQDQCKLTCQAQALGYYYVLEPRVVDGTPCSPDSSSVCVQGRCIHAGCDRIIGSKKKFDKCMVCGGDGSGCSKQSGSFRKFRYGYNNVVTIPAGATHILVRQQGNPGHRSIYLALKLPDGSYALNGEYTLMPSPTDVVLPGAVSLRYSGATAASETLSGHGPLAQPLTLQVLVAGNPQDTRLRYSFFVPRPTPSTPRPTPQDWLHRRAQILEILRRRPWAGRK
The experiment in a line: Western blot (anti-NITEGE neoepitope) of aggrecanase substrate cleavage by ADAMTS-4 ± compound I. Format: biochemical. The conditions noted are these: 1 μM compound I, 1 μM substrate, 18 hours at 37° C., FIG. 8. As for the experimental part:
(§1) Recombinant human ADAMTS-SI (20 μl) and recombinant human ADAMTS-4 (MD Tortorella, Science, 284:1664) (20 μl) were incubated with 1 μM of aggrecanase substrate (aggrecan protein containing the interglobular domain (IGD)). The substrate is cleaved at the relevant aggrecanase site by aggrecanases such as ADAMTS-4. […] The aggrecanase substrate has been used to assess the activity of various aggrecanases, such as ADAMTS-4, and their inhibitors, such as compound I, shown below, and described in EP 1081137, published Mar. 7, 2001: [drawing 1]
(§2) Incubations were carried out in 20 μl TSC buffer (50 mM Tris, pH 7.5 100 mM NaCl, 10 mM CaCl2) with protease inhibitor cocktail (“Complete”, EDTA free from Roche: catalog number 1873580)±1 μM compound I, for 18 hours at 37° C. The reactions were stopped by the addition of EDTA to 10 mM final concentration. The reaction mixtures were prepared for SDS-PAGE by the addition of 40 μl 2× sample buffer (Novex) containing 0.5 M DTT and then separated on 4-20% Tris glycine gels (Novex). […]
(§3) Treatment of the aggrecan protein with aggrecanases results in the formation of a characteristic cleavage site in the IGD. […] The crude rabbit antiserum was affinity purified against the corresponding neoepitope sequence and absorbed against a read-through peptide to ensure specificity for the neoepitope sequence. […]
A general note: A western blot detects proteins with antibodies after separation by electrophoresis.

In data set [2] the target is aggrecanase activity secreted by human osteoarthritic cartilage. The conditions noted are these: cited from earlier work.
Data set [3] deals with aggrecan degradation induced by intraarticular injection of IL-1. The conditions noted are these: hamsters, intraarticular injection of IL-1, 30 mg/kg p.o.; cited from earlier work.
For data set [4], the system named is IL-1 induced aggrecan degradation in human osteoarthritic cartilage explants. The conditions noted are these: cited from earlier work.
In data set [5] the target is T2, Recombinant human ADAMTS-SI (Homo sapiens, UniProt Q9P2N4).
T2 construct: made in house
T2 sequence (Q9P2N4 288-1629 isoform Q9P2N4-1 limits assumed): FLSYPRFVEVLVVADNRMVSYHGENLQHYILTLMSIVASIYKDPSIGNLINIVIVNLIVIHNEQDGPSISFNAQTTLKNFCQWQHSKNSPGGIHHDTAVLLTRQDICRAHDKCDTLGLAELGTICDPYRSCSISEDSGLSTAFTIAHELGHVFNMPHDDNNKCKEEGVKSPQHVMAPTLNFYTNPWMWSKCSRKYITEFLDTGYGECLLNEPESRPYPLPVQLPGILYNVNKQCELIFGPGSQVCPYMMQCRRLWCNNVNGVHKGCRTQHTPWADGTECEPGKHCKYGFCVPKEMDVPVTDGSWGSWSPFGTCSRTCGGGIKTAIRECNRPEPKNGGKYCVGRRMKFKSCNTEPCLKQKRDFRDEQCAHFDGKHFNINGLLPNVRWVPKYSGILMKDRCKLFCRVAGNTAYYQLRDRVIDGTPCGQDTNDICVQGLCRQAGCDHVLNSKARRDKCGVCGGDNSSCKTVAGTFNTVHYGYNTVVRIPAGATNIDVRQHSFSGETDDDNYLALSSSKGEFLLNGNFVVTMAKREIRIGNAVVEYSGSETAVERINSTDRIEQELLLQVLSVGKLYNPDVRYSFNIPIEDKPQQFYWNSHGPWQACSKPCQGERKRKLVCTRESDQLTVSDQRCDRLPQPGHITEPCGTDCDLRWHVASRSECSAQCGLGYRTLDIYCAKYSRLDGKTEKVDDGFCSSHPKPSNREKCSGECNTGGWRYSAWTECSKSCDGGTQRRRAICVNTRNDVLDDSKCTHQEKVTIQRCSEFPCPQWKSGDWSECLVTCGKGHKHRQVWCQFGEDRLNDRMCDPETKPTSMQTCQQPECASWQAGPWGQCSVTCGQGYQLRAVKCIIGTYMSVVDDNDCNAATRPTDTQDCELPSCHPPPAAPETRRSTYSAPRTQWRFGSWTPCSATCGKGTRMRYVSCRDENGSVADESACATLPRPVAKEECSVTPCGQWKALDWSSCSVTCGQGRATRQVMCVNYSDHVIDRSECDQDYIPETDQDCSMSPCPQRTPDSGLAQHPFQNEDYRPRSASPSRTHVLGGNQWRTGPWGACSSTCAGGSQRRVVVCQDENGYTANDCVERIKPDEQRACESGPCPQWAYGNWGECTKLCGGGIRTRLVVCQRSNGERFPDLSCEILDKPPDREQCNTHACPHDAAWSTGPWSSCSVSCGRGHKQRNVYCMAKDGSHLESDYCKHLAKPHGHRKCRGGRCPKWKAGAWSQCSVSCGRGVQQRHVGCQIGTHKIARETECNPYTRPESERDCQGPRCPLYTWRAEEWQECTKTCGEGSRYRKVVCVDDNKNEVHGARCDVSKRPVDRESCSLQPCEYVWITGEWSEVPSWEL
The experiment in a line: Western blot (anti-NITEGE neoepitope) of aggrecanase substrate cleavage by ADAMTS-SI ± compound I. It counts as biochemical. The conditions noted are these: 1 μM compound I, 1 μM substrate, 18 hours at 37° C., FIG. 8. As for the experimental part: as §1, §2, §3

Data set [6] deals with aggrecanase substrate (aggrecan protein containing the interglobular domain (IGD)), uncleaved.
Data set [7] has as its system aggrecanase substrate (aggrecan protein containing the interglobular domain (IGD)). Put plainly: Cleavage of aggrecanase substrate by recombinant enzymes (anti-NITEGE Western blot). Format: biochemical. The conditions noted are these: 20 μl enzyme, 1 μM substrate, 18 hours at 37° C., FIG. 8. As for the experimental part:
as §1, §2, §3

As usually defined, the IC50 is the concentration at which inhibition is half-maximal. On to `C[C@@]1(O)CCCN(S(=O)(=O)c2ccc(OCc3ccc(F)cc3Cl)cc2)[C@H]1C(=O)NO` [compound I], for which the “inhibition of ADAMTS-4 aggrecanase activity (cleavage of aggrecanase substrate)” value in data set [1] is “blocked”. Also, the IC50 was 4.1 nM in data set [2] and 8 nM in data set [4]. Also, the “inhibition of aggrecan degradation” value in data set [3] is reported as 93 % inhibition. Moreover, in data set [5], the “inhibition of ADAMTS-SI aggrecanase activity (cleavage of aggrecanase substrate)” value was “blocked”.

B1: Recombinant human ADAMTS-SI (protein)
chain: FLSYPRFVEVLVVADNRMVSYHGENLQHYILTLMSIVASIYKDPSIGNLINIVIVNLIVIHNEQDGPSISFNAQTTLKNFCQWQHSKNSPGGIHHDTAVLLTRQDICRAHDKCDTLGLAELGTICDPYRSCSISEDSGLSTAFTIAHELGHVFNMPHDDNNKCKEEGVKSPQHVMAPTLNFYTNPWMWSKCSRKYITEFLDTGYGECLLNEPESRPYPLPVQLPGILYNVNKQCELIFGPGSQVCPYMMQCRRLWCNNVNGVHKGCRTQHTPWADGTECEPGKHCKYGFCVPKEMDVPVTDGSWGSWSPFGTCSRTCGGGIKTAIRECNRPEPKNGGKYCVGRRMKFKSCNTEPCLKQKRDFRDEQCAHFDGKHFNINGLLPNVRWVPKYSGILMKDRCKLFCRVAGNTAYYQLRDRVIDGTPCGQDTNDICVQGLCRQAGCDHVLNSKARRDKCGVCGGDNSSCKTVAGTFNTVHYGYNTVVRIPAGATNIDVRQHSFSGETDDDNYLALSSSKGEFLLNGNFVVTMAKREIRIGNAVVEYSGSETAVERINSTDRIEQELLLQVLSVGKLYNPDVRYSFNIPIEDKPQQFYWNSHGPWQACSKPCQGERKRKLVCTRESDQLTVSDQRCDRLPQPGHITEPCGTDCDLRWHVASRSECSAQCGLGYRTLDIYCAKYSRLDGKTEKVDDGFCSSHPKPSNREKCSGECNTGGWRYSAWTECSKSCDGGTQRRRAICVNTRNDVLDDSKCTHQEKVTIQRCSEFPCPQWKSGDWSECLVTCGKGHKHRQVWCQFGEDRLNDRMCDPETKPTSMQTCQQPECASWQAGPWGQCSVTCGQGYQLRAVKCIIGTYMSVVDDNDCNAATRPTDTQDCELPSCHPPPAAPETRRSTYSAPRTQWRFGSWTPCSATCGKGTRMRYVSCRDENGSVADESACATLPRPVAKEECSVTPCGQWKALDWSSCSVTCGQGRATRQVMCVNYSDHVIDRSECDQDYIPETDQDCSMSPCPQRTPDSGLAQHPFQNEDYRPRSASPSRTHVLGGNQWRTGPWGACSSTCAGGSQRRVVVCQDENGYTANDCVERIKPDEQRACESGPCPQWAYGNWGECTKLCGGGIRTRLVVCQRSNGERFPDLSCEILDKPPDREQCNTHACPHDAAWSTGPWSSCSVSCGRGHKQRNVYCMAKDGSHLESDYCKHLAKPHGHRKCRGGRCPKWKAGAWSQCSVSCGRGVQQRHVGCQIGTHKIARETECNPYTRPESERDCQGPRCPLYTWRAEEWQECTKTCGEGSRYRKVVCVDDNKNEVHGARCDVSKRPVDRESCSLQPCEYVWITGEWSEVPSWEL
For the molecule B1, the “cleavage of the aggrecanase substrate at the aggrecanase site (Western blot with anti-NITEGE neoepitope antibody)” value in data set [6] is “treatment of the substrate with both ADAMTS-4 and ADAMTS-SI resulted in cleavage at the previously characterized aggrecanase cleavage site”.

B2: recombinant human ADAMTS-4 (protein)
chain: FASLSRFVETLVVADDKMAAFHGAGLKRYLLTVMAAAAKAFKHPSIRNPVSLVVTRLVILGSGEEGPQVGPSAAQTLRSFCAWQRGLNTPEDSDPDHFDTAILFTRQDLCGVSTCDTLGMADVGTVCDPARSCAIVEDDGLQSAFTAAHELGHVFNMLHDNSKPCISLNGPLSTSRHVMAPVMAHVDPEEPWSPCSARFITDFLDNGYGHCLLDKPEAPLHLPVTFPGKDYDADRQCQLTFGPDSRHCPQLPPPCAALWCSGHLNGHAMCQTKHSPWADGTPCGPAQACMGGRCLHMDQLQDFNIPQAGGWGPWGPWGDCSRTCGGGVQFSSRDCTRPVPRNGGKYCEGRRTRFRSCNTEDCPTGSALTFREEQCAAYNHRTDLFKSFPGPMDWVPRYTGVAPQDQCKLTCQAQALGYYYVLEPRVVDGTPCSPDSSSVCVQGRCIHAGCDRIIGSKKKFDKCMVCGGDGSGCSKQSGSFRKFRYGYNNVVTIPAGATHILVRQQGNPGHRSIYLALKLPDGSYALNGEYTLMPSPTDVVLPGAVSLRYSGATAASETLSGHGPLAQPLTLQVLVAGNPQDTRLRYSFFVPRPTPSTPRPTPQDWLHRRAQILEILRRRPWAGRK
On to B2, for which the “cleavage of aggrecanase substrate at aggrecanase site (NITEGE neoepitope)” value in data set [7] is “resulted in cleavage at the previously characterized aggrecanase cleavage site”. The “cleavage of the aggrecanase substrate at the aggrecanase site (Western blot with anti-NITEGE neoepitope antibody)” value in data set [6] is “treatment of the substrate with both ADAMTS-4 and ADAMTS-SI resulted in cleavage at the previously characterized aggrecanase cleavage site”.
